Biological target: T1, OATP1B3 (Homo sapiens, UniProt Q9NPD5)
T1 construct: expressed in transfected cells; host or cells: HEK293
T1 sequence (Q9NPD5 1-702): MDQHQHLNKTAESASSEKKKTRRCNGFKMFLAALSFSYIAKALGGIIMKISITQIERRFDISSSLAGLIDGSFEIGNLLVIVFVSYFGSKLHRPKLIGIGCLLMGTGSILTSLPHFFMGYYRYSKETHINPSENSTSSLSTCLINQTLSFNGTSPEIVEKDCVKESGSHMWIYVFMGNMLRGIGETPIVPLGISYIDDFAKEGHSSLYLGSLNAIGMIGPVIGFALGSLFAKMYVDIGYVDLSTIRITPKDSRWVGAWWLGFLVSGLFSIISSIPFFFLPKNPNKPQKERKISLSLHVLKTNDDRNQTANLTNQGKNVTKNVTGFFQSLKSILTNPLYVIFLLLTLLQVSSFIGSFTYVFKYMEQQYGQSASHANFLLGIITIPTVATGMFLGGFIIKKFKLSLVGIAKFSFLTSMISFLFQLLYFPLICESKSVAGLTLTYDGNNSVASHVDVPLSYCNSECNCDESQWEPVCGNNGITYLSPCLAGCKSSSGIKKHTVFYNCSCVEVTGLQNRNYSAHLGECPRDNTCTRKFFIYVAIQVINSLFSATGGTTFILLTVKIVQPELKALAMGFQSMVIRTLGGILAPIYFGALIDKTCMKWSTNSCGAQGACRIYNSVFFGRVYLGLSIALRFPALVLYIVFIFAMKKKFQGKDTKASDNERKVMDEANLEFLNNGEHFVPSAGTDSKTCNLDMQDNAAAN
Experiment: OATP1B3 transporter substrate uptake in OATP1B3-HEK293 cells
Type: in vitro ADME
Details: test concentration 1 μM
Method: Protocol for identification of compounds that are substrates of transporters OATP1B1 and OATP1B3. Transfected HTEK293 and vector control HTEK293 cells were cultured in 24-well poly-D-lysine or collagen-coated tissue culture plates ([…]) for 2 and 10 minutes respectively in transport buffer (HIBSSg, pH 7.4, pre-warmed to 37° C.). At a defined time point, the uptake experiments were stopped by removing dosing solution followed by two washes of ice-cold HIBSSg buffer. The cells were lysed for 2 minutes with […] containing an appropriate internal standard (when available). Lysis buffer were chilled to −20° C., and the plate was kept on ice during lysis. The cell lysate was transferred into a 96-well plate for sample analysis with LC-MS/MS analysis to determine concentration of test compound in cell lysate. The uptake of test compounds was normalized by total cell protein using the BCA Protein Assay Kit following the manufacturer's protocol. The inhibitor Rifamycin SV was used to block OATP1B1 and OATP1B3 transporter activity in order to determine uptake ratios.

In the case of `COc1cc2c(cc1OCCCCCCC(=O)O)C[C@@H](C(C)C)n1cc(C(=O)O)c(=O)cc1-2` [Example 6, (S)-9-((6-carboxyhexyl)oxy)-6-isopropyl-10-methoxy-2-oxo-6,7-dihydro-2H-pyrido[2,1-a]isoquinoline-3-carboxylic acid], the “Uptake Ratio (−/+Inhibitor)” value (OATP1B3-HEK293 cells, inhibitor Rifamycin SV) is reported as 11.57 and the “Uptake Ratio (Transporter(−Inhibitor)/Mock(−Inhibitor))” value (OATP1B3-HEK293 vs Mock) is reported as 24.80.
